Test system: HepaRG
Experiment: LDH release cytotoxicity, % of total lysis control; higher = more cytotoxic
Conditions: 48 h
In short: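 Single-lot HepaRG cells in collagen I-coated 96-well plates were treated for 48 h in serum-free induction medium containing 0.5% DMSO with test chemicals in eight-point half-log series up to 100 µM. For total lysis, wells received 0.1% Triton X. LDH in 50 µL spent medium was assayed by resorufin fluorescence with CytoTox-ONE. Percent cytotoxicity was normalized to the on-plate vehicle and total lysis controls, with duplicates averaged.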

CC1(C)CC(N=C=O)CC(C)(CN=C=O)C1 (configuration not stated) [Isophorone diisocyanate]
Conditions	LDH release cytotoxicity [%]
0.03162 µM	-2.14
0.1 µM	-2.6
0.3162278 µM	-2.25
1 µM	-2.1
3.16228 µM	-1.35
10 µM	-1.724
31.6228 µM	-2.21
100 µM	0.405

CCCCc1ccc2c(n1)C(c1ccc(OC)cc1CC(C)C(=O)O)C(C(=O)O)C2c1ccc2c(c1)OCO2 (configuration not stated) [MK-547]
Conditions	LDH release cytotoxicity [%]
0.03162 µM	-0.553
0.1 µM	-1.23
0.3162278 µM	-0.915
1 µM	-1.66
3.16228 µM	-0.888
10 µM	-0.832
31.6228 µM	-0.204
100 µM	0.0481

CCCN(CCC)c1c([N+](=O)[O-])cc(C(C)C)cc1[N+](=O)[O-] [Isopropalin]
Conditions	LDH release cytotoxicity [%]
0.03162 µM	-0.731
0.1 µM	-1.48
0.3162278 µM	-2.92
1 µM	-1.36
3.16228 µM	-1.98
10 µM	-1.28
31.6228 µM	-1.55
100 µM	-0.986

O=[N+]([O-])c1ccc(Cl)c(Cl)c1 [3,4-Dichloronitrobenzene]
Conditions	LDH release cytotoxicity [%]
0.03162 µM	-2.51
0.1 µM	-2.5
0.3162278 µM	-2.72
1 µM	-3.32
3.16228 µM	-2.26
10 µM	-2.3
31.6228 µM	-1.86
100 µM	-0.0607

Cc1cc(C)cc(C)c1 [1,3,5-Trimethylbenzene]
Conditions	LDH release cytotoxicity [%]
0.03162 µM	-1.84
0.1 µM	-1.84
0.3162278 µM	-2.21
1 µM	-2.65
3.16228 µM	-2.52
10 µM	-1.42
31.6228 µM	-0.727
100 µM	1.41

O=C1CCCCCN1 [Caprolactam]
Conditions	LDH release cytotoxicity [%]
0.03162 µM	-0.496
0.1 µM	-1.92
0.3162278 µM	-1.76
1 µM	-0.953
3.16228 µM	-0.455
10 µM	-0.823
31.6228 µM	-0.101
100 µM	1.84

CCC(c1ccc(O)cc1)C(CC)c1ccc(O)cc1 (stereo not drawn) [meso-Hexestrol]
Conditions	LDH release cytotoxicity [%]
0.03162 µM	-1.95
0.1 µM	-2.35
0.3162278 µM	-1.46
1 µM	-1.95
3.16228 µM	-1.99
10 µM	-1.59
31.6228 µM	0.514
100 µM	75.4

C=CCCCCCCCCCCCC [1-Tetradecene]
Conditions	LDH release cytotoxicity [%]
0.031623 µM	-1.3
0.1 µM	-3.45
0.316228 µM	-3.94
1 µM	-4.65
3.16228 µM	-3.81
10 µM	-4.29
31.6228 µM	-4.23
100 µM	-4.05

CCCCCCCCCCCCCCCCCC(=O)O [Octadecanoic acid]
Conditions	LDH release cytotoxicity [%]
0.03162 µM	-0.507
0.1 µM	-1.75
0.3162278 µM	-1.54
1 µM	-1.46
3.16228 µM	-1.45
10 µM	-0.538
31.6228 µM	-0.0805
100 µM	0.581

CCCCN(CCCC)CCCC [Tributylamine]
Conditions	LDH release cytotoxicity [%]
0.03162 µM	-2.12
0.1 µM	-1.33
0.3162278 µM	-2.67
1 µM	-2.57
3.16228 µM	-2.21
10 µM	-2.383
31.6228 µM	-2.97
100 µM	3.29

Cc1[nH]nc2c1N=C(c1ccccc1Cl)c1cc([N+](=O)[O-])ccc1N2
Conditions	LDH release cytotoxicity [%]
0.03162 µM	-0.496
0.1 µM	-1.12
0.3162278 µM	-0.522
1 µM	2.66
3.16228 µM	5.42
10 µM	4.54
31.6228 µM	7.8
100 µM	40.5

Clc1cccc(Cl)c1 [1,3-Dichlorobenzene]
Conditions	LDH release cytotoxicity [%]
0.03162 µM	-0.441
0.1 µM	-1.62
0.3162278 µM	-0.906
1 µM	-1.05
3.16228 µM	-1.07
10 µM	0.199
31.6228 µM	3.191
100 µM	25.9

S=C1NCCN1 [Ethylene thiourea]
Conditions	LDH release cytotoxicity [%]
0.03162 µM	-0.742
0.1 µM	-0.402
0.3162278 µM	-0.462
1 µM	-0.602
3.16228 µM	-0.544
10 µM	0.0401
31.6228 µM	0.537
100 µM	0.155

COC(=O)CC(=O)OC [Dimethyl malonate]
Conditions	LDH release cytotoxicity [%]
0.03162 µM	-0.603
0.1 µM	-0.89
0.3162278 µM	-0.395
1 µM	-0.704
3.16228 µM	-0.831
10 µM	-0.0631
31.6228 µM	0.8
100 µM	1.4

CCC(C)(C)C1CCC(O)CC1 (configuration not stated) [4-(2-Methylbutan-2-yl)cyclohexanol]
Conditions	LDH release cytotoxicity [%]
0.03162 µM	-0.419
0.1 µM	-1.92
0.3162278 µM	-1.25
1 µM	-1.82
3.16228 µM	-2.17
10 µM	-1.05
31.6228 µM	-1.3
100 µM	0.0243

CCN(CC)C(=O)C(C)Oc1cccc2ccccc12 (configuration not stated) [Napropamide]
Conditions	LDH release cytotoxicity [%]
0.03162 µM	-0.242
0.1 µM	-0.853
0.3162278 µM	-1.37
1 µM	-0.226
3.16228 µM	-1.59
10 µM	-0.144
31.6228 µM	0.0468
100 µM	1.05

CNC(=O)CSP(=S)(OC)OC [Dimethoate]
Conditions	LDH release cytotoxicity [%]
0.03162 µM	0.0142
0.1 µM	0.0233
0.3162278 µM	-0.779
1 µM	-1.24
3.16228 µM	-0.679
10 µM	-0.364
31.6228 µM	0.327
100 µM	0.574

O=C1N=CC(F)C(=O)N1 (configuration not stated) [5-Fluorouracil]
Conditions	LDH release cytotoxicity [%]
0.03162 µM	-1.55
0.1 µM	-3.9
0.3162278 µM	-0.836
1 µM	-1.84
3.16228 µM	-1.66
10 µM	-1.56
31.6228 µM	-1.98
100 µM	8.44

c1ccc2[nH]nnc2c1 [1,2,3-Benzotriazole]
Conditions	LDH release cytotoxicity [%]
0.03162 µM	-1.49
0.1 µM	-1.03
0.3162278 µM	-1.12
1 µM	-1.12
3.16228 µM	-1.23
10 µM	-0.765
31.6228 µM	0.381
100 µM	1.81

CCOc1ccc2c(c1)C(C)=CC(C)(C)N2 [Ethoxyquin]
Conditions	LDH release cytotoxicity [%]
0.03162 µM	-1.26
0.1 µM	-0.577
0.3162278 µM	-1.06
1 µM	-1.45
3.16228 µM	-1.65
10 µM	-1.77
31.6228 µM	-1.67
100 µM	-0.112

O=C(NC(=O)c1c(F)cccc1F)Nc1cc(Cl)c(OC(F)(F)C(F)F)c(Cl)c1 [Hexaflumuron]
Conditions	LDH release cytotoxicity [%]
0.03162 µM	-0.197
0.1 µM	-1
0.3162278 µM	-1.85
1 µM	-1.29
3.16228 µM	-1.24
10 µM	-0.349
31.6228 µM	-0.129
100 µM	4.86

CC(=O)CC(C)(C)O [Diacetone alcohol]
Conditions	LDH release cytotoxicity [%]
0.016602 µM	-0.631
0.0525 µM	0.0827
0.16602 µM	-0.266
0.525 µM	0.0034
1.660196 µM	-0.934
5.25 µM	-1.02
16.602 µM	-0.505
52.5 µM	-2.05

CCCCCCCCCCCCc1ccc(S(=O)(=O)O)cc1 [Dodecylbenzenesulfonic acid]
Conditions	LDH release cytotoxicity [%]
0.031623 µM	-1.05
0.1 µM	-1.4
0.316228 µM	-2.17
1 µM	-3.27
3.16228 µM	-2.52
10 µM	-2.56
31.6228 µM	-1.64
100 µM	65.65

O=S(=O)(O)C(F)(F)C(F)(F)C(F)(F)C(F)(F)C(F)(F)C(F)(F)C(F)(F)C(F)(F)F [Potassium perfluorooctanesulfonate]
Conditions	LDH release cytotoxicity [%]
0.03036 µM	-2.82
0.096 µM	-1.72
0.303579 µM	-2.71
0.96 µM	-2.314
3.03579 µM	-2.44
9.6 µM	-1.36
30.3579 µM	-1.03
96 µM	27.2

N#Cc1cccnc1 [3-Pyridinecarbonitrile]
Conditions	LDH release cytotoxicity [%]
0.03162 µM	-1.36
0.1 µM	-2.41
0.3162278 µM	-2.8
1 µM	-2.872
3.16228 µM	-3.04
10 µM	-2.26
31.6228 µM	-2.04
100 µM	-1.31

CCCCCCCCC=CCCCCCCCC(=O)OCC(O)C1OCC(O)C1O (configuration not stated) [Sorbitan, mono-(9Z)-9-octadecenoate]
Conditions	LDH release cytotoxicity [%]
0.03162 µM	-0.746
0.1 µM	-0.105
0.3162278 µM	-1.38
1 µM	-1.65
3.16228 µM	-1.48
10 µM	-1.08
31.6228 µM	-0.835
100 µM	-0.317

CCCCCCOCCO [2-Hexyloxyethanol]
Conditions	LDH release cytotoxicity [%]
0.03162 µM	-0.677
0.1 µM	-1.05
0.3162278 µM	-0.605
1 µM	-0.402
3.16228 µM	-1.19
10 µM	0.932
31.6228 µM	0.572
100 µM	47.6

Cc1cc(C)nc(Nc2ccccc2)n1 [Pyrimethanil]
Conditions	LDH release cytotoxicity [%]
0.03162 µM	-0.263
0.1 µM	-1.12
0.3162278 µM	-0.512
1 µM	-1.63
3.16228 µM	-0.622
10 µM	-0.288
31.6228 µM	0.157
100 µM	3.8

CCC(=O)Nc1ccc(Cl)c(Cl)c1 [Propanil]
Conditions	LDH release cytotoxicity [%]
0.03162 µM	-0.963
0.1 µM	-0.318
0.3162278 µM	-0.815
1 µM	-1.73
3.16228 µM	-0.844
10 µM	0.163
31.6228 µM	0.666
100 µM	4.33

From the supplement of paper PMC7840683
